One series deals with S. aureus (ATCC-25923). The series can be described thus: Minimal inhibitory/bactericidal concentrations (MIC/MBC). Particulars: for MBC ± SD / MIC ± SD: S. aureus. In kind it is cell-based, Staphylococcus aureus. The source says: (§1) The antimicrobial activity of newly synthesized benzyl thiazolium ionic liquids (BTILs) was investigated in vitro against the most common foodborne bacterial strains (Staphylococcus aureus (S. aureus, ATCC-25923) and Escherichia coli (E. coli, ATCC-25922)) in comparison with clinical drugs (Gentamycin (Gm) and Tetracyclin (TC)). These tests have been conducted in accordance with the standard antimicrobial assessment protocols we've described and used in our previous studies.[29] The diameters of the zone of inhibition (ZOI, mm), values of minimum inhibitory concentration (MIC), and minimal bactericidal concentration (MBC) were used as markers for the antimicrobial efficacy of the tested compounds.
(§2) As evident in Table 2, the results of MIC and MBC are in general accordance with the Well diffusion assay. […] In the literature, quantitative information on the antimicrobial activity of short-chained and benzyl-functionalized ionic liquids is scarce. In this context, few studies have reported the antibacterial impact of 1-alkyl-3-methylimidazolium ionic liquids, bound to different anions, upon various pathogenic bacteria.

The subject of a further series is E. coli (ATCC-25922). The series is described as above. Format: cell-based, Escherichia coli.
Excerpt: as §1, §2

The test system of series [1] is Staphylococcus aureus (S. aureus, ATCC-25923). In words: Well diffusion assay (zone of inhibition). Format: cell-based. An excerpt:
The antimicrobial activity of newly synthesized benzyl thiazolium ionic liquids (BTILs) was investigated in vitro against the most common foodborne bacterial strains (Staphylococcus aureus (S. aureus, ATCC-25923) and Escherichia coli (E. coli, ATCC-25922)) in comparison with clinical drugs (Gentamycin (Gm) and Tetracyclin (TC)). […] The diameters of the zone of inhibition (ZOI, mm), values of minimum inhibitory concentration (MIC), and minimal bactericidal concentration (MBC) were used as markers for the antimicrobial efficacy of the tested compounds.
The antibacterial activities of novel TILs against S. aureus and E. coli were screened in vitro, as compared to clinical antibiotics (Gentamycin (Gm) and Tetracyclin (TC)). […] Gram-negative bacteria' outer membranes, which are composed of impermeable lipopolysaccharides (LPS), phospholipids, and lipoproteins, may act as a barrier to the entry of antimicrobial molecules, whereas Gram-positive bacteria's outer membranes have no LPS layer and are composed only of a thick peptidoglycan layer which can easily absorb and transfer such antimicrobials to the inner cell membrane.[43]
(In general: In agar diffusion tests the substance spreads into inoculated agar from a disc or well.)

Series [2] deals with normal human skin fibroblast cells (HSF). The series can be described thus: MTT cytotoxicity assay. In kind it is cell-based. Particulars: HSF, MTT, 24 h of treatment. The method, then:
(§3) The antiproliferative activity of novel BTILs was tested in vitro against two cell lines: ovarian cancer (SKOV-3) and normal human skin fibroblast cells (HSF) using the standard MTT cytotoxicity assay described in our previous work.[30] The cell viability ratios, half-maximal inhibitory concentration (IC50), and selectivity index (SI) were used as performance indices for the cytotoxicity of tested compounds. The clinical anticancer drug (cisplatin, CDDP) was used as a positive control.
(§4) To explore the selectivity of the newly synthesized TILs for attacking cancer cells over normal ones, the effects of serial concentrations (0–200 μM) of these TILs on the proliferation of normal human skin fibroblast (HSF) cells were also studied for a period of 24 h. […] For example, treatment of both cell lines with 100 μM of [^iPBzTh][Tf2N] […] [MBzTh][BF4]
For orientation: Tetrazolium assays rely on reduction of a dye to a coloured formazan, in cell work by metabolically active cells.

The test system of series [3] is ovarian carcinoma cell lines (SKOV-3). In words: MTT cytotoxicity assay. Format: cell-based, human. The conditions noted are these: for IC50: SKOV-3, MTT, 24 h of treatment; for Selectivity index (SI): cancer cells (SKOV-3) over normal ones (HSF). As for the experimental part:
as §3
The use of ionic liquids (ILs) in pharmaceutical and medicinal chemistry has recently piqued the interest of researchers across the globe.[12] In this scenario, several studies have documented the anticancer potential of ILs.[20,48] In order to find potential safe anticancer candidates, the cytotoxicity of imidazolium, ammonium, pyridinium, and phosphonium ILs was tested against over 60 human cancer cell lines.[12,49] […] Besides, the cytotoxicity of ILs is strongly correlated to the counter anion. For instance, the cytotoxicity of 1-alkyl-3-methylimidazolium cation [RMIM]^+ follows the following trend; [RMIM][Tf2N] ≫ [RMIM][BF4] > [RMIM][Cl].[50] To our knowledge, no previous studies have been reported so far for using thiazolium ILs for anticancer purposes. These facts have inspired us to design and study the antiproliferative activity of new thiazolium ILs tethering different anions (BF4 (3a–c) and Tf2N (4a–c)) against ovarian carcinoma cell lines (SKOV-3) and normal human skin fibroblast cells (HSF). The 3-(4,5-dimethylthiazol-2-yl)-2,5-diphenyltetrazolium bromide (MTT) assay was used to carry out this study, with cisplatin (CDDP) serving as a positive control. Initially, the impacts of serial concentrations (2.5–100 μM) of the thiazolium ILs on the viability of the SKOV-3 cell lines were assessed as compared to CDDP. […] In general, TILs bound to Tf2N anion (4a–c) inhibited the proliferation of SKOV-3 cells more effectively than the corresponding tetrafluoroborate analogues (3a–c). For instance, [^iPBzTh][Tf2N] (4b) is the most cytotoxic one and can reduce the SKOV-3 cellular viability to a minimum value (10.5 ± 1.7%, Fig. 5A) at its treatment dosage of 100 μM. Conversely, [MBzTh][BF4]
At definite time intervals, the SKOV-3 cell viability has been measured.

For another series, the system named is E.coli. Also on record: method as in doi:10.1039/b921805j, doi:10.1016/j.molliq.2016.05.093. The conditions noted are these: cited from earlier work.
The test system of another series is S.aureus. Also on record: method as in doi:10.1039/b921805j, doi:10.1016/j.molliq.2016.05.093. The conditions noted are these: cited from earlier work.
A short description of series [4]: Viscosity by capillary viscometer. In kind it is physicochemical. The conditions noted are these: at 50 °C and concentrations 0.5 mg mL^−1, capillary viscometer. The source says:
Also, the viscosity of new benzyl thiazolium ionic liquids depends on the intrinsic structural features of the cation and anion. […] This behavior can be explained based on the fact that the extremely hydrophobic Tf2N^− anion, enriched with fluorine electrons, exerts higher ion–ion interactions with hydrophobic tert-butylbenzyl-methylthiazolium cation, resulting in an increase in viscosity.[35]

A short description of another series: MTT cytotoxicity assay. Format: cell-based, human. Particulars: human, normal human skin fibroblast (HSF) cells; 200 μM, 24 h. The method, then:
as §3, §4

A short description of series [5]: Thermal stability by TG/DTG. In kind it is physicochemical. The conditions noted are these: taken from DTG curves. The method, then:
The thermogravimetric (TG) curves of the room temperature thiazolium ionic liquids (RTTILs) (3a, 4a–c) (Fig. 1A) were employed for the investigation of their thermal stabilities. It is evident that they are thermally stable up to 270 °C and then undergo a sharp degradation phase in the temperature range of 270–350 °C. […] The first main decomposition phase (∼81% weight loss) starts at 323 °C, followed by a modest decomposition stage between 496 and 618 °C. […] The first thermal degradation step begins at 298 °C (∼52% weight loss) and is followed by two smaller degradation steps at 353 and 418 °C, respectively.

Values after ≈ are worked out from the molar mass of the structure shown. Like-named read-outs stand apart in the source and are kept apart here.

On to `Cc1csc[n+]1Cc1ccc(C(C)C)cc1.[Cl-]` [2b, 3-(4-Isopropylbenzyl)-4-methylthiazol-3-ium chloride], for which, in the series with S. aureus (ATCC-25923), the “MBC ± SD” value is given as 2.35 ± 0.28 mM and the “MIC ± SD” value is given as 2.35 ± 0.27 mM. In the series on E. coli (ATCC-25922), the “MBC ± SD” value is recorded as 5.25 ± 0.29 mM and the “MIC ± SD” value was determined as 5.25 ± 0.31 mM. The “Zone of inhibition (ZOI)” value in series [1] stood at 32.13 mm.

For the compound `Cc1csc[n+]1Cc1ccc(C(C)(C)C)cc1.[Cl-]` [2c, 3-(4-(tert-Butyl)benzyl)-4-methylthiazol-3-ium chloride], the “MBC ± SD” value worked out at 3.75 ± 0.14 mM against S. aureus (ATCC-25923) and 6.25 ± 0.29 mM with E. coli (ATCC-25922). In addition, the “MIC ± SD” value in the series with S. aureus (ATCC-25923) was 3.75 ± 0.19 mM; against E. coli (ATCC-25922), 6.25 ± 0.27 mM.

In general, MIC refers to the lowest concentration found to suppress growth. As for `CN(C)[C@@H]1C(O)=C(C(N)=O)C(=O)[C@@]2(O)C(O)=C3C(=O)c4c(O)cccc4[C@@](C)(O)[C@H]3C[C@@H]12` [Tetracycline, reference compound], in the series on S. aureus (ATCC-25923) (Staphylococcus aureus, ATCC25923, S. aureus), the MIC was found to be 7.2 ± 0.66 mM (≈ 3200 µg/mL).

For orientation: IC50 means the concentration that inhibits the measured activity by half. For the compound `Cc1csc[n+]1Cc1ccc(C(C)C)cc1.F[B-](F)(F)F` [3b, 3-(4-Isopropylbenzyl)-4-methylthiazol-3-ium tetrafluoroborate], in the series on S. aureus (ATCC-25923), the “MBC ± SD” value amounted to 2.56 ± 0.15 mM and the “MIC ± SD” value turned out to be 2.56 ± 0.13 mM. The IC50 in series [2] was found to be 152 ± 9.15 µM. For the same compound, in the series on E. coli (ATCC-25922), the “MBC ± SD” value was determined as 6.25 ± 0.23 mM and the “MIC ± SD” value was 5.25 ± 0.29 mM. The “Zone of inhibition (ZOI)” value in series [1] is on record as 41.86 mm. Besides, in [3], 35.7 ± 1.03 µM corresponded to half-maximal inhibition (IC50) and the “Selectivity index (SI)” value came out at 4.26.

Regarding `Cc1csc[n+]1Cc1ccc(C(C)(C)C)cc1.F[B-](F)(F)F` [3c, 3-(4-(tert-Butyl)benzyl)-4-methylthiazol-3-ium tetrafluoroborate], in the series on S. aureus (ATCC-25923), the “MBC ± SD” value is 3.12 ± 0.14 mM and the “MIC ± SD” value came out at 3.12 ± 0.19 mM. In series [2], this compound registered a half-maximal inhibitory concentration (IC50) of 191 ± 9.85 µM. In the series with E. coli (ATCC-25922), the “MBC ± SD” value is 6.50 ± 0.39 mM and the “MIC ± SD” value was 6.50 ± 0.39 mM. Besides, the “Zone of inhibition (ZOI)” value in series [1] was determined as 39.02 mm. Also, in [3], the half-maximal inhibitory concentration (IC50) was found to be 51.1 ± 2.33 µM and the “Selectivity index (SI)” value is 3.76.

Gentamycin [reference compound]: the “MIC ± SD” value in the series with E. coli (ATCC-25922) is given as 6.85 ± 0.63 mM.

What is called MBC is the smallest concentration meeting the test's criterion for killing. With `CCCCCCn1cc[n+](C)c1.O=S(=O)([N-]S(=O)(=O)C(F)(F)F)C(F)(F)F` [1-hexyl-3-methylimidazolium bis((trifluoromethyl)sulfonyl)amide], in the series with E.coli, the MBC is 24.59 mM and the MIC is on record as 24.59 mM. Moreover, in the series on S.aureus, the MBC is 9.13 mM and the minimum inhibitory concentration (MIC) was 9.13 mM.

As a reminder, the viability is the share of living cells, or the viability signal relative to a control. High values mean less harm to the cells, low ones more harm to the cells. For the compound `Cc1ccc(C[n+]2cscc2C)cc1.F[B-](F)(F)F` [3a, 3-(4-Methylbenzyl)-4-methylthiazol-3-ium tetrafluoroborate], the “η (viscosity)” value in series [4] amounted to 439.25 ± 5.3 cP. Besides, in the series on S. aureus (ATCC-25923), the “MBC ± SD” value is listed as 3.25 ± 0.21 mM and the “MIC ± SD” value was 3.25 ± 0.19 mM. The compound further yielded a concentration for half-maximal inhibition (IC50) in series [2] (Homo sapiens, Skin fibroblast, 24 h) of 178 ± 8.79 µM. This compound also showed a viability at 24 h, 200 µM in “MTT cytotoxicity assay” of 45.5 ± 4.1%. Further, in the series with E. coli (ATCC-25922), the “MBC ± SD” value is listed as 5.75 ± 0.45 mM and the “MIC ± SD” value is reported as 5.75 ± 0.41 mM. For the same compound, in [5], the “T dec (decomposition temperature)” value worked out at 340.3 °C. In addition, the “Zone of inhibition (ZOI)” value in [1] was found to be 39.21 mm. Also, the “Reduction in SKOV-3 viability” value in series [3] (100 μM, 24 h) was 54.6%. Besides, in [3], 78 ± 1.35 µM corresponded to half-maximal inhibition (IC50) and the “Selectivity index (SI)” value amounted to 2.28.

The compound `[NH2][Pt]([NH2])([Cl])[Cl]` [CDDP, cisplatin, reference compound] had a half-maximal inhibitory concentration (IC50) in series [2] of 58.3 ± 6.67 µM. In series [3] (IC50 dose, after 72 h), the SKOV-3 cell viability came out at 10.2 ± 2.7%. For the same compound, in series [3], half-maximal inhibition (IC50) was put at 79.5 ± 1.18 µM and the “Selectivity index (SI)” value amounted to 0.73.

With `Cc1ccc(C[n+]2cscc2C)cc1.[Cl-]` [2a, 3-(4-Methylbenzyl)-4-methylthiazol-3-ium chloride], the “MBC ± SD” value was 4.25 ± 0.31 mM in the series on S. aureus (ATCC-25923), 4.25 mM against S. aureus (ATCC-25923) (listed as [MBzTh][Cl]), 12.25 ± 0.36 mM against E. coli (ATCC-25922) and 12.25 mM against E. coli (ATCC-25922) (listed as [MBzTh][Cl]). Also, the “MIC ± SD” value worked out at 4.05 ± 0.29 mM in the series on S. aureus (ATCC-25923), 4.05 mM with S. aureus (ATCC-25923) (listed as [MBzTh][Cl]), 6.75 ± 0.35 mM against E. coli (ATCC-25922) and 6.75 mM in the series on E. coli (ATCC-25922) (listed as [MBzTh][Cl]).

Values taken from paper PMC8978639, “Fine-tuning of the pharmacological potential of novel thiazolium ionic liquids by anion alteration” (RSC Advances, 2021).
